According to patent US10011602B2, “Immunological reagents and uses therefor” (THE UNIVERSITY OF MELBOURNE, priority 2012, dated 2018):

System: human MAIT cells from peripheral blood
Assay: Activation of primary MAIT cells from PBMCs (CD69, IFN-γ, TNF-α)
Type: cell-based
Conditions: PBMCs with C1R cells expressing MR1
Protocol: PBMCs from a healthy donor were mixed with C1R-huMR1 cells (10^5 each/well). Salmonella SL1344 supernatant (2 μl) from cultures grown in LB supplemented with 25 μg/ml streptomycin (Sigma) for 4 hr at 37° C., or compounds (35A, 36A, 48G: 25 μg/ml final, A-6FP: 10 μM final) or PMA (2 ng/ml+ionomycin (1 ng/ml) added in a total volume of 220 μl RF-10, and incubated overnight at 37° C. Cells were stained with anti-CD3-PE-Cy7 (eBioscience, 20 μg/ml), anti-CD4-APC-Cy7 (Biolegend, 1.7 μg/ml), anti-CD161-APC (Miltenyi Biotec, 1:50), FITC-conjugated D5 (anti-MAIT TCR, 10 μg/ml) and either anti-CD69-PE (BD Biosciences 1:50), anti-IFNγ-PE (BD Pharmingen 10 μg/ml) or anti-TNFα-PE (BD Pharmingen 10 μg/ml), and analyzed by flow cytometry using a Canto II cytometer and Diva software. For intracellular cytokine staining, brefeldin A (10 μg/ml) was added to the assay after the first 1 hr and the incubation allowed to proceed overnight. Cells were fixed with 1% parformaldehyde after staining for surface markers and permeabilised with 1% saponin during cytokine stains. MAIT cells were defined as CD3^+, CD4^−, CD161^+, D5^+ after gating on PBMCs using FSC and SSC.
PBMCs from a healthy donor were mixed with C1R cells expressing MR1 (10^5 each/well). Salmonella SL1344 supernatant (2 μl) from cultures grown in LB supplemented with 25 μg/ml streptomycin (Sigma) for 4 hr at 37° C., or compounds (RL-6,7-diMe, RL-6-Me-7-OH, 6FP: 76.2 μM final, rRL-6-HM: 0.152 μM final) or PMA (2 ng/ml+ionomycin (1 ng/ml) added in a total volume of 220 μl RF-10, and incubated overnight at 37° C. Cells were stained with anti-CD3-PE-Cy7 (eBioscience, 20 μg/ml), anti-CD4-APC-Cy7 (Biolegend, 1.7 μg/ml), anti-CD161-APC (Miltenyi Biotec, 1:50), FITC-conjugated D5 (anti-MAIT TCR, 10 μg/ml) and either anti-CD69-PE (BD Biosciences 1:50), anti-IFNγ-PE (BD Pharmingen 10 μg/ml) or anti-TNFα-PE (BD Pharmingen 10 μg/ml), and analyzed by flow cytometry using a Canto II cytometer and Diva software. […] CD69 expression was analysed by flow cytometry. […]

In the case of `Cc1nc2c(=O)[nH]c(=O)nc-2n(C[C@H](O)[C@H](O)[C@H](O)CO)c1C` [Compound 1, 6,7-dimethyl-8-D-ribityllumazine], the “Activation of MAIT cells (CD69 upregulation, intracellular IFN-γ and TNF-α)” value is reported as “specifically activated”.
